Among the data in US20140187548A1, “6 SUBSTITUTED IMIDAZOPYRAZINES FOR USE AS MPS-1 AND TKK INHIBITORS IN THE TREATMENT OF HYPERPROLIFERATIVE DISORDERS” (BAYER INTELLECTUAL PROPERTY GMBH, priority 2010, published 2014) are IC50 values, retold here.

For the assay, the target named is T1, human kinase Mps-1 (Homo sapiens, UniProt P33981).
T1 construct: N-terminally GST-tagged human full length recombinant Mps-1 kinase; GST (N); purchased Invitrogen, Karslruhe, Germany PV4071
T1 sequence (P33981 1-857): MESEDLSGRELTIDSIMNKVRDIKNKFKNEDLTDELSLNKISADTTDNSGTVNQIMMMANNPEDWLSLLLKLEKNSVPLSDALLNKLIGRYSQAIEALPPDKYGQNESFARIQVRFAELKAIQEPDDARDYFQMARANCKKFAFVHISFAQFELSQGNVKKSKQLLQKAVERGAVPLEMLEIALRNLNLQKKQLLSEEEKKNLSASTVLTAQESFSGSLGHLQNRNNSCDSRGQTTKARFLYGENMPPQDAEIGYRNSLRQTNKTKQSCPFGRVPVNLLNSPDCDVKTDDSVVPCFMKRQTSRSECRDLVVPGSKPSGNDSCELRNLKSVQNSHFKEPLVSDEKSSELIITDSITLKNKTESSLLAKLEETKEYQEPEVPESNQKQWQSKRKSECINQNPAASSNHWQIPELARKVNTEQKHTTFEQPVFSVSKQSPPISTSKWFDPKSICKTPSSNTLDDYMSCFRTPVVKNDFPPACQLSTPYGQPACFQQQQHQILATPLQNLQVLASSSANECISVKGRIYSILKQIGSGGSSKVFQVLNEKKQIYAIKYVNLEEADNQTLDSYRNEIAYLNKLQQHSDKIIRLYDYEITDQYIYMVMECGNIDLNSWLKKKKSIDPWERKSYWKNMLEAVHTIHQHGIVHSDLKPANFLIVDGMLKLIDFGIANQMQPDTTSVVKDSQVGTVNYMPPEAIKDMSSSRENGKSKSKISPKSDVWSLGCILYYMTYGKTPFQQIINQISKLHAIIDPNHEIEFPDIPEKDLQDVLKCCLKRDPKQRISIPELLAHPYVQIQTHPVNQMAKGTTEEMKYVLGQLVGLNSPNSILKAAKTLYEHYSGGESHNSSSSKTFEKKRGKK
In words: Mps-1 kinase assay (TR-FRET). The note with it: N-terminally GST-tagged human full length recombinant Mps-1; 10 μM ATP; 1 μM peptide substrate; 15 min pre-incubation; 60 min at 22° C. Format: biochemical. An outline of the steps:
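N-terminally GST-tagged full-length recombinant human Mps-1, about 1 nM final, phosphorylates a biotinylated peptide. Product detected by TR-FRET from Eu-anti-phospho-Ser/Thr antibody to streptavidin-XLent after 1 h at 22° C.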
One may read the IC50 as the concentration that gives 50% inhibition. As for `COc1ccc(-c2cn3c(-c4ccc(C(=O)NC5CC5)cc4)cnc3c(NCC(C)C)n2)cc1F` [Example 1-62, N-cyclopropyl-4-{6-(3-fluoro-4-methoxyphenyl)-8-[(2-methylpropyl)amino]imidazo[1,2-a]pyrazin-3-yl}benzamide], the IC50 is 6.7 nM. Turning to `CC(C)(O)CNc1nc(-c2ccccc2CO)cn2c(-c3ccc(C(=O)NC4CC4)c(F)c3)cnc12` [Example 1-116, N-cyclopropyl-2-fluoro-4-{6-[2-(hydroxymethyl)phenyl]-8-[(2-hydroxy-2-methylpropyl)amino]imidazo[1,2-a]pyrazin-3-yl}benzamide], the half-inhibitory concentration (IC50) was found to be 34.7 nM.

On to `CC(C)CNc1nc(-c2ccc(N(C)C)cc2)cn2c(-c3ccc(C(=O)NC4CC4)cc3)cnc12` [Example 1-92, N-cyclopropyl-4-{6-[4-(dimethylamino)phenyl]-8-[(2-methylpropyl)amino]imidazo[1,2-a]pyrazin-3-yl}benzamide], for which the IC50 was 7.6 nM. Take `Cn1cc(CNc2nc(-c3ccccc3)cn3c(-c4ccc(C(=O)NC5CC5)cc4)cnc23)cn1` [Example 2-56, N-cyclopropyl-4-(8-{[(1-methyl-1H-pyrazol-4-yl)methyl]amino}-6-phenylimidazo[1,2-a]pyrazin-3-yl)benzamide]: the IC50 worked out at 1.3 nM.

Take `Cc1cc(-c2cnc3c(NCCC(F)(F)F)nc(-c4ccc(CO)cc4)cn23)ccc1C(=O)NC1CC1` [Example 1-123, N-cyclopropyl-4-{6-[4-(hydroxymethyl)phenyl]-8-[(3,3,3-trifluoropropyl)amino]imidazo[1,2-a]pyrazin-3-yl}-2-methyl-benzamide]: the IC50 stood at 1.2 nM. As for `CC(C)CNc1nc(-c2ccc(OCC(C)C)cc2)cn2c(-c3ccc(C(=O)NC4CC4)cc3)cnc12` [Example 1-81, N-cyclopropyl-4-{6-[4-(2-methylpropoxy)phenyl]-8-[(2-methylpropyl)amino]imidazo[1,2-a]pyrazin-3-yl}benzamide], the IC50 was 347 nM. The result for `COc1cccc(-c2cn3c(-c4ccc(C(=O)NC5CC5)cc4)cnc3c(NCC(C)C)n2)c1OC` [Example 1-17, N-cyclopropyl-4-{6-(2,3-dimethoxyphenyl)-8-[(2-methylpropyl)amino]imidazo[1,2-a]pyrazin-3-yl}benzamide] reads 14.4 nM. With `CC(C)CNc1nc(-c2ccccc2O)cn2c(-c3ccc(C(=O)NC4CC4)cc3)cnc12` [Example 1-65, N-cyclopropyl-4-{6-(2-hydroxyphenyl)-8-[(2-methylpropyl)amino]imidazo[1,2-a]pyrazin-3-yl}benzamide], the IC50 is 8.5 nM. Consider `Cc1cc(-c2cnc3c(NCCC(F)(F)F)nc(-c4ccc(F)c(CO)c4)cn23)ccc1C(=O)NC1CC1` [Example 1-124, N-cyclopropyl-4-{6-[4-fluoro-3-(hydroxymethyl)phenyl]-8-[(3,3,3-tri-fluoropropyl)amino]imidazo[1,2-a]pyrazin-3-yl}-2-methylbenzamide], for which the IC50 stood at 1.1 nM. Under `Cc1ccc(-c2cn3c(-c4ccc(C(=O)NC5CC5)cc4)cnc3c(NCC(C)C)n2)cc1` [Example 1-7, N-cyclopropyl-4-{6-(4-methylphenyl)-8-[(2-methylpropyl)amino]imidazo[1,2-a]pyrazin-3-yl}benzamide] stands 5.7 nM; under `O=C(NC1CC1)c1ccc(-c2cnc3c(NCC4CCCO4)nc(-c4ccccc4)cn23)cc1` (centres unmarked) [Example 2-8, N-cyclopropyl-4-{6-phenyl-8-[(tetrahydrofuran-2-ylmethyl)amino]imidazo[1,2-a]pyrazin-3-yl}benzamide], 2.1 nM.

On to `NS(=O)(=O)CCNc1nc(-c2ccccc2)cn2c(-c3ccc(C(=O)NC4CC4)cc3)cnc12` [Example 2-64, N-cyclopropyl-4-{6-phenyl-8-[(2-sulfamoylethyl)amino]imidazo[1,2-a]pyrazin-3-yl} benzamide], for which the IC50 was found to be 1 nM. For `O=C(NC1CC1)c1ccc(-c2cnc3c(NCC4CCCCO4)nc(-c4ccccc4)cn23)cc1` (centres unmarked) [Example 2-65, N-cyclopropyl-4-{6-phenyl-8-[(tetrahydro-2H-pyran-2-ylmethyl)amino]imidazo[1,2-a]pyrazin-3-yl}benzamide], the IC50 was 1.3 nM.

As for `CC(C)CNc1nc(-c2ccc3c(c2)OCCO3)cn2c(-c3ccc(C(=O)NC4CC4)cc3)cnc12` [Example 1-3, N-cyclopropyl-4-{6-(2,3-dihydro-1,4-benzodioxin-6-yl)-8-[(2-methyl-propyl)amino]imidazo [1,2-a]pyrazin-3-yl} benzamide], the half-maximal inhibitory concentration (IC50) worked out at 18.4 nM. `O=C(NC1CC1)c1ccc(-c2cnc3c(NCc4ccsc4)nc(-c4ccccc4)cn23)cc1` [Example 2-74, N-cyclopropyl-4-{6-phenyl-8-[(3-thienylmethyl)amino]imidazo[1,2-a]pyrazin-3-yl}benzamide]: the IC50 was found to be 3.7 nM. In the case of `CNC(=O)c1cccc(-c2cn3c(-c4ccc(C(=O)NC5CC5)cc4)cnc3c(NCC(C)C)n2)c1` [Example 1-33, 3-{3-[4-(cyclopropyl-carbamoyl)phenyl]-8-[(2-methylpropyl)amino]imidazo[1,2-a]pyrazin-6-yl}-N-methylbenzamide], the IC50 was 1.4 nM. Consider `O=C(NC1CC1)c1ccc(-c2cnc3c(NCc4ccc(C(F)(F)F)cc4)nc(-c4ccccc4)cn23)cc1` [Example 2-20, N-cyclopropyl-4-(6-phenyl-8-{[4-(trifluoromethyl)benzyl]amino}imidazo[1,2-a]pyrazin-3-yl)benzamide], for which the IC50 was 38.6 nM. In the case of `O=C(NC1CC1)c1ccc(-c2cnc3c(NCCCc4ccccc4)nc(-c4ccccc4)cn23)cc1` [Example 2-31, N-cyclopropyl-4-{6-phenyl-8-[(3-phenylpropyl)amino]imidazo[1,2-a]pyrazin-3-yl} benzamide], the IC50 worked out at 34.8 nM. Regarding `CCN(CC)CCCNc1nc(-c2ccccc2)cn2c(-c3ccc(C(=O)NC4CC4)cc3)cnc12` [Example 2-29, N-cyclopropyl-4-(8-{[3-(diethylamino)propyl]amino}-6-phenylimidazo[1,2-a]pyrazin-3-yl)benzamide], the IC50 was found to be 14.8 nM.

In the case of `O=C(NC1CC1)c1ccc(-c2cnc3c(NCCC(F)(F)F)nc(-c4ccccc4CO)cn23)cc1F` [Example 1-114, N-cyclopropyl-2-fluoro-4-{6-[2-(hydroxymethyl)phenyl]-8-[(3,3,3-tri-fluoropropyl)amino]imidazo[1,2-a]pyrazin-3-yl}benzamide], the IC50 came to 3.5 nM. With `CCNc1nc(-c2ccccc2)cn2c(-c3ccc(C(=O)NC4CC4)cc3)cnc12` [Example 2-16, N-cyclopropyl-4-[8-(ethylamino)-6-phenylimidazo [1,2-a]pyrazin-3-yl]benzamide], the IC50 stood at 3.3 nM.

On to `CCN(CC)CCCCNc1nc(-c2ccccc2)cn2c(-c3ccc(C(=O)NC4CC4)cc3)cnc12` [Example 2-37, N-cyclopropyl-4-(8-{[4-(diethylamino)butyl]amino}-6-phenylimidazo[1,2-a]pyrazin-3-yl)benzamide], for which the IC50 amounted to 14.1 nM. As to `Cc1ccc(-c2cn3c(-c4ccc(C(=O)NC5CC5)cc4)cnc3c(NCC(C)C)n2)cc1Cl` [Example 1-80, 4-{6-(3-chloro-4-methyl-phenyl)-8-[(2-methylpropyl)amino]imidazo [1,2-a]pyrazin-3-yl}-N-cyclopropylbenzamide], the half-inhibitory concentration (IC50) turned out to be 20.7 nM. Take `Cc1cc(-c2cnc3c(NCC4CCC(C)(O)CC4)nc(-c4ccc(F)cc4)cn23)ccc1C(=O)NC1CC1` (centres unmarked) [Example 10-7, N-cyclopropyl-4-[6-(4-fluorophenyl)-8-{[(4-hydroxy-4-methylcyclo-hexyl)methyl]amino}imidazo[1,2-a]pyrazin-3-yl]-2-methylbenzamide]: the concentration for half-maximal inhibition (IC50) turned out to be 5.4 nM. For `CC(C)CNc1nc(-c2cccc(C(=O)N3CCCC3)c2)cn2c(-c3ccc(C(=O)NC4CC4)cc3)cnc12` [Example 1-54, N-cyclopropyl-4-{8-[(2-methylpropyl)amino]-6-[3-(pyrrolidin-1-yl-carbonyl)phenyl]imidazo [1,2-a]pyrazin-3-yl} benzamide], the IC50 turned out to be 6.2 nM. Regarding `CN(C)c1ccc(CNc2nc(-c3ccccc3)cn3c(-c4ccc(C(=O)NC5CC5)cc4)cnc23)cc1` [Example 2-44, N-cyclopropyl-4-(8-{[4-(dimethylamino)benzyl]amino}-6-phenylimidazo[1,2-a]pyrazin-3-yl)benzamide], the IC50 was 18.1 nM.
